In US12534451B2, “Small molecule modulators of PanK” (St. Jude Children's Research Hospital, priority 2019, dated 2026):

Assays:
[1] = target: human PANK3 (Homo sapiens (Human), UniProt Q9H999); test: PANK activity assay (radiochemical, D-[1-14C]pantothenate); assay type: biochemical; settings: 5 nM human PANK3, 2.5 mM ATP, 45 μM pantothenate, 10 min at 37° C.; average ± data range
Procedure: The PanK activity and Surface Plasmon Resonance assays were conducted as explained in the literature.
If the IC^50 was determined to be in the nM range then the assay was repeated in the presence of 0-1 μM or 0-0.1 μM compound to more precisely determine the IC^50. All the experiments were repeated twice in duplicate and the data were an average ±data range.
The experiments mimicking the mixture of ligands present in vivo were performed under different conditions. […] The IC^50 values for the structure-activity study were calculated by fitting the inhibition data to a one-site model of the Michaelis-Menten equation. […] Thus, the data were fit to Morrison's quadratic equation (GraphPad software) that accounts for the impact of enzyme inhibitor binding on the free concentration of inhibitor.

[2] = test system: Human C3A [HepG2/C3A] cells; test: Cellular total CoA determination in C3A cells; assay type: cell-based; settings: 24 hrs of treatment
Procedure: Human C3A [HepG2/C3A, derivative of HepG2] cells (ATCC #CRL-10741) were purchased from ATCC® and maintained in Eagle's minimum Essential medium (ATCC) supplemented with 2 mM glutamine, 10% fetal bovine serum (FCS, Altanta Biologicals), 50 U/ml penicillin and […] streptomycin. The C3A cell line was confirmed to be mycoplasma-free. Test compounds or vehicle control (DMSO) was added and after 24 hrs of treatment the cells were washed with PBS and harvested and subjected to total CoA determination.
Cultured cells were resuspended in 2 ml cold water to which 500 μl of 0.25M KOH was added, derivatized with monobromobimane (mBBr, Life technologies) and quantified by HPLC. 30 mg of frozen tissue is homogenized in 2 ml of 1 mM KOH and then derivatized with mBBr. The mBBr derivatized samples were fractionated by reverse-phase HPLC using a Gemini C18 3 μm column (150×4.60 mm) from Phenomenex. The chromatography system was a Waters e2695 separation module with a UV/Vis and fluorescence detector and controlled by Empower 3 software. Solvent A was 50 mM potassium phosphate pH 4.6, and solvent B was 100% acetonitrile. Twenty microliters of sample was injected onto the column, and the flow rate was 0.5 ml/min. The HPLC program was the following: starting solvent mixture of 90% A/10% B, 0-2 min isocratic with 10% B, 2-6 min linear gradient from 10% B to 15% B, 6-18 min concave gradient from 15% B to 40% B, 18-23 min isocratic with 40% B, 23-25 min linear gradient from 40 to 10%, and 25-30 min isocratic with 10% B. The UV/vis detector was set at 393 nm, and the fluorescence detector was set with excitation at 393 nm and emission at 470 nm. The elution position of the mBBr-CoA, was determined by comparison with mBBr-CoA prepared from commercial CoA (Avanti Polar Lipids). The areas under the mBBr-derivatized CoA was integrated and compared to known concentrations of the mBBr-CoA standard.

Sequence of human PANK3 (Q9H999 whole entry): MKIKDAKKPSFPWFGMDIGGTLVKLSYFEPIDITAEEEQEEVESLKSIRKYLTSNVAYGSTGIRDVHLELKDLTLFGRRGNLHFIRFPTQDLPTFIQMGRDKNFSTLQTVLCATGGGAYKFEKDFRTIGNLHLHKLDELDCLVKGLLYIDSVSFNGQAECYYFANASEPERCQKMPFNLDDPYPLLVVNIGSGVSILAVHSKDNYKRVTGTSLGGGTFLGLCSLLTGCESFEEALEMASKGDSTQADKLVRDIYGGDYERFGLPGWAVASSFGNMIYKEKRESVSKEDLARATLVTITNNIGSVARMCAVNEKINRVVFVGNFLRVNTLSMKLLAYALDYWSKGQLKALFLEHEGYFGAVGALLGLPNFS

SMILES	IC50 [1] [nM]	C3A CoA% elevation [2] [%]
O=C(Cc1ccc(C2CC2)cc1)N1CCN(c2nc3c(F)cc(F)cc3s2)CC1 [PZ-4291]	2.1 ± 0.1	238.4
CS(=O)(=O)Nc1ccc(CC(=O)N2CCN(c3ccc(Cl)nn3)CC2)cc1 [PZ-4140, N-(4-(2-(4-(6-chloropyridazin-3-yl)piperazin-1-yl)-2-oxoethyl)phenyl)methanesulfonamide]	3.8 ± 0.1	64.4
CS(=O)(=O)Nc1ccc(CC(=O)N2CCN(c3nc4c(F)cc(F)cc4s3)CC2)cc1 [PZ-4324]	1.3 ± 0.06	104.3
CS(=O)(=O)Nc1ccc(CC(=O)N2CCN(c3nc4c(F)cccc4s3)CC2)cc1 [PZ-4322]	4.1 ± 0.49	171.6
CN(C)c1ccc(CC(=O)N2CCN(c3nc4c(F)cc(F)cc4s3)CC2)cc1 [Lee-4296]	25 ± 1.6	198.6
O=C(Cc1ccc(C2CC2)cc1)N1CCN(c2nc3ccccc3s2)CC1 [PZ-4285]	26 ± 3	223.7
CS(=O)(=O)Nc1ccc(CC(=O)N2CCN(c3nc4ncccc4s3)CC2)cc1 [PZ-4320]	1.4 ± 0.16	58
O=C(Cc1ccc(C2CC2)cc1)N1CCN(c2nc3ncccc3s2)CC1 [PZ-4298]	1 ± 0.1	60.1
CN(C)c1ccc(CC(=O)N2CCN(c3nc4ncccc4s3)CC2)cc1 [PZ-4316]	5 ± 0.5	183.4
CS(=O)(=O)Nc1ccc(CC(=O)N2CCN(c3nc4ccccc4s3)CC2)cc1 [PZ-4294]	13 ± 1.3	102.23
O=C(Cc1ccc(C2CC2)cc1)N1CCN(c2nc3cc(F)ccc3s2)CC1 [PZ-4306]	5.4 ± 0.4	238.6
O=C(Cc1ccc(C2CC2)cc1)N1CCN(c2nc3cccnc3o2)CC1 [PZ-4301]	52.9 ± 6.4	268.3
